Test results taken from patent US6576634B1, “Pharmaceutical or dietetic preparation for improvement of fertility and sperm quality” (N.V. Nutricia, priority 2000, dated 2003).

How the values were obtained:
[1] = test system: men suffering from round cell idiopathic syndrome; settings: 15 mg per day during 3 months; men with round cell idiopathic syndrome; cited from earlier work
[2] = test system: fertile men and subfertile men; assay: Spermcount after oral administration of folic acid, zinc or both, versus initial spermcount; assay type: in vivo; parameters: key to Percentage improvement of spermcount after administration of active agents, compared to initial spermcount: 0 means about neutral; The number of + signs indicates activity; ++: The number of + signs indicates activity; +++: The number of + signs indicates activity; +++(+): The number of + signs indicates activity; settings: for Percentage improvement of spermcount after administration of active agents, compared to initial spermcount: daily administration during 5 months (table head; text says three months)
spermatozoa = settings: 10 mg over 30 days; cited from earlier work
fowl seminal plasma = settings: zinc concentration above 3 μg per ml storage medium; cited from earlier work
[3] = test system: males that suffer from idopathic oligospermia; settings: 220 mg zinc sulphate; idiopathic oligospermia; cited from earlier work

SMILES | spermatozoa number and fertility [1] | Percentage improvement of spermcount after administration of active agents, compared to initial spermcount ([2]; fertile men) | sperm count ([2]; folate alone, especially subfertile men) | Percentage improvement of spermcount after administration of active agents, compared to initial spermcount ([2]; subfertile men) | sperm counts and motility and DNA content of spermatozoa (spermatozoa) | fertility of fowl seminal plasma (fowl seminal plasma) | sperm counts ([2]; both groups, so also in fertile men) | sperm and number of spermatozoa having normal morfology and motility [3]
Nc1nc(=O)c2c([nH]1)NCC(CNc1ccc(C(=O)N[C@@H](CCC(=O)O)C(=O)O)cc1)N2C=O (mixture of isomers) [folinic acid] | increases spermatozoa number and fertility |  |  |  |  |  |  | 
Nc1nc2ncc(CNc3ccc(C(=O)N[C@@H](CCC(=O)O)C(=O)O)cc3)nc2c(=O)[nH]1 [5 mg folate, folic acid] |  | 0 | increases sperm count | +++ | did not result in an increase |  |  | 
O=S(=O)([O-])[O-].[Zn+2] [15 mg zinc, zinc sulphate] |  | + |  | ++ |  | reduced the fertility | increases sperm counts in both groups | improved significantly
